Tests used:
[1] = tested on: hGCGR.ob/ob mice; assay: Antihyperglycemic efficacy in hGCGR.ob/ob mice (acute and chronic); format: in vivo, hGCGR.ob/ob mouse
Text: The present study made use of a line of hGCGR-expressing mouse (“hGCGR mouse”) generated previously by substituting the hGCGR gene for the mouse GCGR gene. These mice were crossed with C57BL/6J.ob/+ mice (Jackson Laboratories, Bar Harbor, ME) to obtain an hGCGR.ob/+ mouse line. The hGCGR.ob/+ mice were then intercrossed to obtain hGCGR.ob/ob, hGCGR.ob/+, and hGCGR.+/+ mice (with the hGCGR.ob/+ and hGCGR.+/+ mice serving as littermate controls). […] obese (DIO) hGCGR mice were generated by maintaining hGCGR mice on a high-fat diet (HFD) in which 45–60% of calories were in fat (Product S3282, Bio-Serv, Frenchtown, NJ). High-fat-diet-streptozotocin-treated (HFD/STZ) diabetic mice were generated in-house as previously described.
Acute glucose lowering was studied in non-fasted hGCGR.ob/ob mice and HFD/STZ mice administered single doses p.o. of 1, 3 and 10 mg/kg GRA1 in 10 mL/kg 0.5% aqueous methylcellulose. Animals were fasted during the interval between dosing and the final blood glucose measurement. Glucose was measured in blood from tail bleeds using a OneTouch glucometer. In the experiments with hGCGR HFD/STZ mice, treatment groups were matched with respect to body weight and blood glucose levels.
Animals were dosed chronically with GRA1 and the DPP-4 inhibitor des-fluoro-sitagliptin by administering these agents as food admixtures. The admixtures were prepared in-house and by Research Diets (New Brunswick, NJ), with drug concentrations adjusted weekly on the basis of average food consumption and animal weight to provide targeted daily doses. In the GRA1 experiments, the targeted doses were 3, 6, 10, and 30 mg/kg•day. In des-fluoro-sitagliptin experiments, the targeted dose was 200 mg/kg•day, a relatively high amount necessary because this compound has a half-life in rodents of 1–2 h.
Plasma glucagon and active GLP-1 were measured using commercial ELISA kits (Linco Research Immunoassay, St. Charles, MO). […] Plasma insulin was determined by ELISA with a commercial kit (ALPCO Diagnostics, Windham, NH). Plasma concentrations of glycated hemoglobin A1c (HbA1c) were measured using a Micromat II test kit from Bio-Rad Laboratories (Hercules, CA). Total cholesterol, low-density lipoprotein cholesterol (LDL-c) and non-LDL-c, and aspartate aminotransferase were measured using a Roche P Modular Clinical Chemistry analyzer (Indianapolis, IN).
Figure 4 GRA1 lowers blood glucose in the DIO hGCGR and hGCGR.ob/ob mouse. Mean (±SEM) blood glucose concentrations in (A) non-fasted and (B) fasted DIO hGCGR mice treated with approximately 3 and 10 mg/kg·day GRA1 provided as a food admixture. (Additional data from this study are in Table 2). (C) Mean (±SEM) blood glucose concentrations in the hGCGR.ob/ob mouse following single oral doses of 1, 3, or 10 mg/kg GRA1 or vehicle. (D) Mean (±SEM) non-fasted blood glucose concentrations in hGCGR.ob/ob mice treated for 2–8 weeks with control diet or 10 mg/kg·day GRA1 administered as diet admixture. *p<0.05, **p<0.01, and ***p<0.001 in timepoint-matched comparisons with controls; n = 8 in each group.

[2] = tested on: rhesus monkey liver; assay: Hepatic gene expression (Affymetrix microarray of liver biopsies) in rhesus monkeys; format: in vivo; settings: 30 mg/kg twice daily
Method: Hepatic gene expression was assessed by liver biopsy in adult rhesus monkeys that had been treated twice daily for 1 and 6 days with 30 mg/kg GRA1 or vehicle. The compound was administered to the animals orally in yogurt or a similar treat while they were housed in their home cages. The animals were fasted for approximately 16 h prior to performing liver biopsies laparoscopically, under anesthesia. On biopsy days, animals received their morning doses of GRA1 2 h before the biopsies were performed.
Total RNA was processed for Affymetrix microarray analysis as previously described. Briefly, total RNA was isolated from frozen tissues after homogenizing in TRIzol reagent (Invitrogen, Carlsbad, CA) and processed using RNeasy kits (QIAGEN, Valencia, CA) according to manufacturers' instructions. Sample amplification, labeling, and microarray processing were performed by the Covance Genomics Laboratory in Seattle, WA using the Affymetrix catalog Rhesus array (Affymetrix, Santa Clara, CA). One-way ANOVA analyses were performed with Matlab (The Mathworks, Natick, MA). Probesets had to pass a pre-filter of Affymetrix MAS5 present call p value <0.05 in >50% of the samples to qualify for further analysis. Differentially expressed genes (probesets) were selected with 1.2-fold change and ANOVA p value <0.05.

COc1ccc2cc(-c3cc(-c4cc(C(F)(F)F)ccc4F)nn3[C@@H](C)c3ccc(C(=O)NCCC(=O)O)cc3)ccc2c1 [GRA1, N-[4-((1S)-1-{3-(2-fluoro-5-trifluoromethylphenyl)-5-[6-methoxynaphth-2-yl]-1H-pyrazol-1-yl}ethyl)benzoyl]-β-alanine]
Non-fasted blood glucose lower than control diet ([1]; 10 mg/kg•day, 2, 4 and 8 weeks): 40–50% | Food intake, body weight, fasting insulin levels vs control diet ([1]; 10 mg/kg•day, 8 weeks (data not shown)): No differences | Mean fasted blood glucose ([1]; 10 mg/kg•day, 8 weeks, control diet 189±36): 90.8 ± 7.8 mg/dL | Mean plasma glucagon ([1]; 10 mg/kg•day, 8 weeks, control diet 959±90): 1356 ± 113 pg/mL | Total GLP-1 ([1]; 10 mg/kg•day, 8 weeks, controls 15.6±2.0): 26.5 ± 3.0 pM | Effect on blood glucose, single dose ([1]; single doses of 3 and 10 mg/kg vs vehicle): lowered blood glucose significantly | AASS (aminoadipate-semialdehyde synthase) hepatic expression, fold difference vs vehicle ([2]; Day 1): −2.0 fold | AGXT2L1 hepatic expression, fold difference vs vehicle ([2]; Day 1): −1.5 fold | ASL (argininosuccinate lyase) hepatic expression, fold difference vs vehicle ([2]; Day 1): −1.5 fold | BCKDHB hepatic expression, fold difference vs vehicle ([2]; Day 1): −1.4 fold | DDC (dopa decarboxylase) hepatic expression, fold difference vs vehicle ([2]; Day 1): −1.4 fold | FH (fumarate hydratase) hepatic expression, fold difference vs vehicle ([2]; Day 1): −1.2 fold | GCKR (glucokinase regulator) hepatic expression, fold difference vs vehicle ([2]; Day 1): 1.5 fold | GPT (alanine aminotransferase) hepatic expression, fold difference vs vehicle ([2]; Day 1): −1.5 fold | HPD (4-hydroxyphenylpyruvate dioxygenase) hepatic expression, fold difference vs vehicle ([2]; Day 1): −1.3 fold | KMO (kynurenine 3-monooxygenase) hepatic expression, fold difference vs vehicle ([2]; Day 1): −1.3 fold | OAT (ornithine aminotransferase) hepatic expression, fold difference vs vehicle ([2]; Day 1): −1.9 fold | SDS (serine dehydratase) hepatic expression, fold difference vs vehicle ([2]; Day 1): −8.8 fold | SDSL (serine dehydratase-like) hepatic expression, fold difference vs vehicle ([2]; Day 1): −1.6 fold | SLC7A2 hepatic expression, fold difference vs vehicle ([2]; Day 1): −1.8 fold | TAT (tyrosine aminotransferase) hepatic expression, fold difference vs vehicle ([2]; Day 1): −1.8 fold | ARG1 (arginase, liver) hepatic expression, fold difference vs vehicle ([2]; Day 1 (ns)): −1.1 fold | GCK (glucokinase) hepatic expression, fold difference vs vehicle ([2]; Day 1 (ns)): 2.4 fold | GLS2 (glutaminase 2) hepatic expression, fold difference vs vehicle ([2]; Day 1 (ns)): −1.3 fold | GOT1 hepatic expression, fold difference vs vehicle ([2]; Day 1 (ns)): −1.5 fold | PAH (phenylalanine hydroxylase) hepatic expression, fold difference vs vehicle ([2]; Day 1 (ns)): −1.5 fold | SLC1A2 hepatic expression, fold difference vs vehicle ([2]; Day 1 (ns)): −1.6 fold | AASS (aminoadipate-semialdehyde synthase) hepatic expression, fold difference vs vehicle ([2]; Day 6): −3.0 fold | AGXT2L1 hepatic expression, fold difference vs vehicle ([2]; Day 6): −1.8 fold | ARG1 (arginase, liver) hepatic expression, fold difference vs vehicle ([2]; Day 6): −1.3 fold | ASL (argininosuccinate lyase) hepatic expression, fold difference vs vehicle ([2]; Day 6): −1.6 fold | BCKDHB hepatic expression, fold difference vs vehicle ([2]; Day 6): −1.3 fold | FH (fumarate hydratase) hepatic expression, fold difference vs vehicle ([2]; Day 6): −1.2 fold | GCK (glucokinase) hepatic expression, fold difference vs vehicle ([2]; Day 6): 5.4 fold | GCKR (glucokinase regulator) hepatic expression, fold difference vs vehicle ([2]; Day 6): 1.3 fold | GLS2 (glutaminase 2) hepatic expression, fold difference vs vehicle ([2]; Day 6): −1.6 fold | GOT1 hepatic expression, fold difference vs vehicle ([2]; Day 6): −2.1 fold | GPT (alanine aminotransferase) hepatic expression, fold difference vs vehicle ([2]; Day 6): −1.3 fold | HPD (4-hydroxyphenylpyruvate dioxygenase) hepatic expression, fold difference vs vehicle ([2]; Day 6): −1.2 fold | KMO (kynurenine 3-monooxygenase) hepatic expression, fold difference vs vehicle ([2]; Day 6): −1.5 fold | OAT (ornithine aminotransferase) hepatic expression, fold difference vs vehicle ([2]; Day 6): −3.6 fold | PAH (phenylalanine hydroxylase) hepatic expression, fold difference vs vehicle ([2]; Day 6): −2.1 fold | SDS (serine dehydratase) hepatic expression, fold difference vs vehicle ([2]; Day 6): −27.1 fold | SLC1A2 hepatic expression, fold difference vs vehicle ([2]; Day 6): −7.6 fold | SLC7A2 hepatic expression, fold difference vs vehicle ([2]; Day 6): −2.4 fold | DDC (dopa decarboxylase) hepatic expression, fold difference vs vehicle ([2]; Day 6 (ns)): −1.1 fold | SDSL (serine dehydratase-like) hepatic expression, fold difference vs vehicle ([2]; Day 6 (ns)): −1.5 fold | TAT (tyrosine aminotransferase) hepatic expression, fold difference vs vehicle ([2]; Day 6 (ns)): −1.7 fold

From paper PMC3501516, “Anti-Diabetic Efficacy and Impact on Amino Acid Metabolism of GRA1, a Novel Small-Molecule Glucagon Receptor Antagonist” (PLoS ONE, 2012)
